# Data from patent publication US10809252B2, “Time-resolved fluorescent immunochromatographic assay rapid test kit for type I pyrethroid” (priority 2017, dated 2020).
# Assays:
# [1] = system: universal monoclonal antibody against type I pyrethroid (hybridoma cell line QW8#); assay: conventional indirect competitive ELISA; assay type: binding, mouse
# Source text: To screen the target positive hybridoma cell line that is a highly specific and sensitive cell line against pyrethroid containing a diphenyl ether structure (by screening with etofenprox standard), the traditional two-step screening method was modified in this experiment. A gradient screening method was used in the indirect competitive ELISA screening process. (1) In the first step, an indirect non-competitive ELISA was used to screen the positive wells that recognized the diphenyl ether structure, but not the carrier protein (BSA). […] The positive wells with relatively small B/B0 were selected, where B is the absorbance in the control well […] etofenprox standard, and B0 is the absorbance in the wells with etofenprox standard. The cells were cloned by limiting dilution, and detected about 10 days after the cloning by using the same two-step method as described above. […]
# The affinity for QW8# was determined by indirect non-competitive ELISA. […] The OD450 values measured was used as the vertical coordinates, the values of the logarithm of the antibody concentrations (mol/L) were used as the horizontal coordinates, 4 S-shaped curves corresponding to the 4 concentrations were plotted. […]
# Hapten-1-BSA = assay: affinity constant (Ka) of the antibody by indirect non-competitive ELISA; assay type: binding; conditions: antibody derived from mouse ascetic fluid; plate coated with Hapten-1-BSA at 2.0, 1.0, 0.5, 0.25 μg/mL
# Experimental: The affinity for QW8# was determined by indirect non-competitive ELISA. The plate was coated at 37° C. for 2 hours with Hapten-1-BSA at concentrations of 2.0, 1.0, 0.5, and 0.25 μg/mL in an amount of 100 μL/well. After the plate was blocked with a blocking solution for 1 hour, the antibody diluted with PBS (at a dilution factor of 1:2) was added to the plate and the rest steps were the same as those in indirect non-competitive ELISA. The OD450 values measured was used as the vertical coordinates, the values of the logarithm of the antibody concentrations (mol/L) were used as the horizontal coordinates, 4 S-shaped curves corresponding to the 4 concentrations were plotted. The maximum OD value (ODmax) at the top of each S-curve, that is, the concentration of the antibody that corresponds to 50% of the ODmax, was obtained from each curve. The 4 concentrations were paired, and the affinity constant (Ka) of the antibody was calculated by using the formula Ka=(n−1)/2(n[Ab′]t−[Ab]t), where [Ab′]t, and [Ab]t are antibody concentrations corresponding to 50% of two ODmax values in each group, and n is the multiple of the antigen concentration coated in each group.
molecule,measurement,setting,value
CCOc1ccc(C(C)(C)COCc2cccc(Oc3ccccc3)c2)cc1 [etofenprox],IC50 value of the universal monoclonal antibody,[1],0.02086 µg/mL
CC1(C)C(C=C(Cl)Cl)C1C(=O)OCc1cccc(Oc2ccccc2)c1 (stereo not drawn) [permethrin],IC50 value of the universal monoclonal antibody,[1],0.0242 µg/mL
"QW8#: universal monoclonal antibody against type I pyrethroid secreted by hybridoma cell line QW8# (CCTCC C2016164), subtype IgG2a (antibody, V domains shown) VH: QVTLKESGPGILQPSQTLSLTCSFSGFSLSTYGIGIGWIRQSSGRGLEWLAHIWWNDNRYYNIALKSRLTISKDASNNQFFLKLASVDTADIATYYCVRGYGRPFYAMDYWGQGTTVTVSS VL: QAVVTQESALTTSPGETVTLTCRSSTGAVTTSNYVNWVQEKPDHLFTGLIGGTNNRGPGVPARFSGSLIGDKAALTITGTQTEDEAIYFCALWYSNHWVFGGGTKLTVL",affinity (affinity constant Ka) of the antibody,Hapten-1-BSA,2.16e+08 L/mol
